Where “and” joins values, the source holds several entries; their conditions need not be identical. Equal values may be shown once. Read-outs that look alike come from different tables or passages of the source.
Test: Phase 1 multiple ascending dose (Part B) pharmacokinetics after low-fat meal
Assay type: in vivo, human
Conditions: for Tmax: median; for AUC: read-out: AUC0-τ; for CL renal: urine and plasma
Description: In Part B, 24 subjects were studied in 3 groups (Groups B1 to B3), with each group consisting of 8 subjects (6 received Compound I and 2 received placebo). The dose, dosing frequency, duration, and dietary state for Part B were determined based on review of available PK, safety, and tolerability data from Parts A and B.
All doses in Part B were administered following administration of a low-fat meal. In Groups B1 and B3, Compound I (200 mg for Group B1, 275 mg for Group B3) or placebo was administered twice daily (BID) on Days 1 to 6 and once on the morning of Day 7. In Group B2, subjects received QD dosing with 525 mg Compound I or placebo on Days 1 to 7.
In Part B, each subject participated in 1 treatment period. Subjects resided at the CRU from Day −1 (the day before dosing) until the morning of Day 10 (72 hours after the final dose on Day 7). All subjects returned for a Follow-up visit between 5 to 14 days after their final dose.
In Part B, all doses were administered after a low-fat meal. On Day 1 and Day 7 (days with post-dose PK sampling), subjects started a low-fat breakfast 30 minutes prior to dosing and were given 15 minutes to complete their meal; dosing occurred approximately 15 minutes after completion of breakfast. On dosing Days 2 through 6, subjects were to complete their breakfast within an hour prior to dosing. For the evening doses, subjects were given a standard meal and completed their meal between 1 and 2 hours prior to dosing.

[1] = 200 mg BID (B1), Day 1, low-fat meal
[2] = 200 mg BID (B1), Day 7, low-fat meal
[3] = 275 mg BID (B3), Day 1, low-fat meal
[4] = 275 mg BID (B3), Day 7, low-fat meal
[5] = 525 mg QD (B2), Day 1, low-fat meal
[6] = 525 mg QD (B2), Day 7, low-fat meal
[7] = human, plasma, oral, 200 mg, 200 mg BID (B1), Day 1, low-fat meal
[8] = human, plasma, oral, 200 mg, 200 mg BID (B1), Day 7, low-fat meal
[9] = human, plasma, oral, 275 mg, 275 mg BID (B3), Day 1, low-fat meal
[10] = human, plasma, oral, 275 mg, 275 mg BID (B3), Day 7, low-fat meal
[11] = human, plasma, oral, 525 mg, 525 mg QD (B2), Day 1, low-fat meal
[12] = human, plasma, oral, 525 mg, 525 mg QD (B2), Day 7, low-fat meal
[13] = human, plasma, oral, 200 mg BID (B1), Day 7, low-fat meal
[14] = human, plasma, oral, 275 mg BID (B3), Day 7, low-fat meal
[15] = human, plasma, oral, 525 mg QD (B2), Day 7, low-fat meal

Cn1cc(-c2cn(-c3ccc(OC(F)(F)F)cc3)c(=O)c3ncn(C)c23)cn1 [Compound I]
AUC0-τ(norm) [1]: 11300 hr*ng/mL/(mg/kg) | Ae0-12 [1]: 105 mg | Cmax (norm) [1]: 1970 ng/mL/(mg/kg) | fe0-12 [1]: 52.5% | AUC0-τ(norm) [2]: 12600 hr*ng/mL/(mg/kg) | Ae0-12 [2]: 142 mg | CL/F [2]: 85.9 mL/min | CL/F(norm) [2]: 1.32 (mL/min)/kg | Cmax (norm) [2]: 1970 ng/mL/(mg/kg) | RAAUC (accumulation ratio based on AUC0-τ) [2]: 1.1 and 1.11 | fe0-12 [2]: 71.2% | λZ [2]: 0.142 h⁻¹ | Mean pre-dose (trough) Compound I concentration (200 mg BID, Day 7): 1680 ng/mL | AUC0-τ(norm) [3]: 9560 hr*ng/mL/(mg/kg) | Ae0-12 [3]: 162 mg | Cmax (norm) [3]: 1540 ng/mL/(mg/kg) | fe0-12 [3]: 58.9% | AUC0-τ(norm) [4]: 14300 hr*ng/mL/(mg/kg) | Ae0-12 [4]: 190 mg | CL/F [4]: 81.1 mL/min | CL/F(norm) [4]: 1.16 (mL/min)/kg | Cmax (norm) [4]: 1900 ng/mL/(mg/kg) | RAAUC (accumulation ratio based on AUC0-τ) [4]: 1.5 | fe0-12 [4]: 69.1% | λZ [4]: 0.123 h⁻¹ | Fold increase in geometric mean Cmax (275 mg BID vs 200 mg BID (1.4-fold increase in dose)): 1.2 fold | Mean pre-dose (trough) Compound I concentration (275 mg BID, Day 7): 3260 ng/mL | AUC0-τ(norm) [5]: 10500 hr*ng/mL/(mg/kg) | Ae0-12 [5]: 171 mg | Ae0-24 [5]: 242 mg | Cmax (norm) [5]: 1140 ng/mL/(mg/kg) | fe0-12 [5]: 32.6% | fe0-24 [5]: 46.1% | AUC0-τ(norm) [6]: 13100 hr*ng/mL/(mg/kg) | Ae0-12 [6]: 185 mg | Ae0-24 [6]: 284 mg | CL/F [6]: 89.4 mL/min | CL/F(norm) [6]: 1.27 (mL/min)/kg | Cmax (norm) [6]: 1260 ng/mL/(mg/kg) | RAAUC (accumulation ratio based on AUC0-τ) [6]: 1.3 and 1.25 | fe0-12 [6]: 35.3% | fe0-24 [6]: 54.0% | λZ [6]: 0.0544 h⁻¹ | Fold increase in geometric mean AUC0-∞ (525 mg QD vs 200 mg BID (2.6-fold increase in dose)): 2.5 fold | Mean pre-dose (trough) Compound I concentration (525 mg QD, Day 7): 897 ng/mL | Time to steady-state plasma concentrations (200 and 275 mg BID and 525 mg QD): ≤ 2 days | Tmax at 1 day (human, plasma, oral, 200 mg BID, 275 mg BID, 525 mg QD, Day 1, read-out: Median tmax, range across regimens): 2.3 to 3.5 h | Tmax at 7 day (human, plasma, oral, 200 mg BID, 275 mg BID, 525 mg QD, Day 7, read-out: Median tmax, range across regimens): 2.8 to 4 h | Cmax [7]: 6080 ng/mL | Tmax [7]: 3 h | AUC [7]: 34900 ng·h/mL | Cmax [8]: 6060 ng/mL | Tmax [8]: 4 h | AUC [8]: 38800 ng·h/mL | Cmax [9]: 6070 ng/mL | Tmax [9]: 2.28 h | AUC [9]: 37700 ng·h/mL | Cmax [10]: 7500 ng/mL | Tmax [10]: 2.75 h | AUC [10]: 56500 ng·h/mL | Cmax [11]: 8510 ng/mL | Tmax [11]: 3.5 h | AUC [11]: 78100 ng·h/mL | Cmax [12]: 9440 ng/mL | Tmax [12]: 3.53 h | AUC [12]: 97800 ng·h/mL | half-life [13]: 293 min | half-life at 7 day [13]: 294 min | Vd/F (human, plasma, oral, 200 mg BID (B1), Day 7, low-fat meal, read-out: Vz/F): 36.1 L | Vd/F (human, plasma, oral, 200 mg BID (B1), Day 7, low-fat meal, read-out: Vz/F(norm)): 0.576 L/kg | half-life [14]: 338 min | half-life at 7 day [14]: 336 min | Vd/F (human, plasma, oral, 275 mg BID (B3), Day 7, low-fat meal, read-out: Vz/F): 39.6 L | Vd/F (human, plasma, oral, 275 mg BID (B3), Day 7, low-fat meal, read-out: Vz/F(norm)): 0.568 L/kg | half-life [15]: 375 min | half-life at 7 day [15]: 378 min | Vd/F (human, plasma, oral, 525 mg QD (B2), Day 7, low-fat meal, read-out: Vz/F): 98.6 L | Vd/F (human, plasma, oral, 525 mg QD (B2), Day 7, low-fat meal, read-out: Vz/F(norm)): 1.4 L/kg | CL renal (human, oral, 200 mg, 200 mg BID (B1), Day 1, low-fat meal): 50.2 mL/min | CL renal (human, oral, 200 mg, 200 mg BID (B1), Day 7, low-fat meal): 61.2 mL/min | CL renal (human, oral, 275 mg, 275 mg BID (B3), Day 1, low-fat meal): 71.6 mL/min | CL renal (human, oral, 275 mg, 275 mg BID (B3), Day 7, low-fat meal): 56.1 mL/min | CL renal (human, oral, 525 mg, 525 mg QD (B2), Day 1, low-fat meal): 51.7 mL/min | CL renal (human, oral, 525 mg, 525 mg QD (B2), Day 7, low-fat meal): 48.3 mL/min
